Data as given in US6630496B1, “Inhibitors of phospholipase enzymes” (Genetics Institute LLC, priority 1996, dated 2003).
Values joined by “and” are separate entries in the source; they are usually repeats but may differ in a detail not shown here. Equal values may be shown once. Read-outs that look alike come from different tables or passages of the source. Values belong to the molecule of their own block, whether it stands above or below them.

Legend:
cPLA2 [1] = target: T1, cPLA2 (Homo sapiens, UniProt P47712); test: Activity assay of Example 136 (Table VIII; sub-assay not stated); type: biochemical; settings: for IC50: concentration paired with 50 percent inhibition, read-out: CONCENTRATION (micromolar) @ PERCENT INHIBITION 50
T1 sequence (P47712 1-749): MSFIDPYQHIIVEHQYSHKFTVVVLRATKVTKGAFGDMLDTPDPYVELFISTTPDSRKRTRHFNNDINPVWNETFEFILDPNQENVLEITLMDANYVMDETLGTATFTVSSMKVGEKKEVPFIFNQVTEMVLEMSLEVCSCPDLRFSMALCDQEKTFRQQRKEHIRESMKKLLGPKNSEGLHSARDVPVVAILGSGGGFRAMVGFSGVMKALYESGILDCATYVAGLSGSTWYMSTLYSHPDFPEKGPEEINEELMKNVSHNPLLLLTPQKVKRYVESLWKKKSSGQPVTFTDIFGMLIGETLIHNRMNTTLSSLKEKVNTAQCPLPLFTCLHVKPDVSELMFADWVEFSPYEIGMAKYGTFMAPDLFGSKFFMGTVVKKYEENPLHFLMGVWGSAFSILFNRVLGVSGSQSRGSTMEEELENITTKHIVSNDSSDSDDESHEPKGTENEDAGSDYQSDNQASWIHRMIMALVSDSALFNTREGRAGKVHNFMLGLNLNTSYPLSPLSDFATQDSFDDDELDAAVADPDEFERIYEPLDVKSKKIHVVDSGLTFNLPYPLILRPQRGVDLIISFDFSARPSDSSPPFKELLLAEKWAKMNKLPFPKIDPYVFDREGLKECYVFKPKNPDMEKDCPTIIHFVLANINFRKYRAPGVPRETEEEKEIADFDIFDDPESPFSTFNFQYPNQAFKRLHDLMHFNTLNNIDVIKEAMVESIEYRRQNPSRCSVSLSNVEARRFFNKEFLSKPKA
Experimental: Activity data for the compounds of Examples 88-135 are reported in Table VIII (assay described in Example 136).
1-palmitoyl-2-V^14C] arachidonyl phosphotidylcholine (58 mCi/mmol) (final concentration 6 μM) and 1,2-dioleyolglycerol (final concentration 3 μM) were mixed and dried under a stream of nitrogen. To the lipids was added 50 mM Hepes pH 7.5 (2×final concentration of lipids) and the suspension was sonicated for 3 min. at 4° C. To the suspension was added 50 mM Hepes pH 7.5, 300 mM NaCl, 2 mM DTT, 2 mM CaCl2 and 2 mg/ml bovine serum albumin (BSA) (Sigma A7511) (1.2×final concentration of lipids). A typical assay consisted of the lipid mixture (85 μl) to which was added consecutively, the inhibitor (5 μl in DMSO) and cPLA2, 10 ng for an automated system or 1 ng for a manual assay, in 10 μl of the BSA buffer. This assay was conducted by either the manual assay or automated assay protocol described below.
(§1) 1-[^14C]-palmitoyl-2-hydroxyphosphotidyl-choline (57 mCi/mmol) (final concentration 4.4 μM) was dried under a stream of nitrogen. The lipid was resuspended by vortexing 80 mM Hepes pH 7.5, 1 mM EDTA (1.2×final concentration). A typical assay consisted of lipid suspension (85 μl) to which was added consecutively the inhibitor (5 μl in DMSO) and cPLA2, 200 ng in 80 mM Hepes pH 7.5, 2 mM DTT and […]. This assay was conducted by either the manual assay or automated assay protocol described below.
RBL-2H3 cells were routinely cultured as 37° C. in a 5% CO2 atmosphere in minimal essential medium containing nonessential amino acids and 12% fetal calf serum. The day before the experiment, cells were seeded into spinner flasks at 3×10^5 cells/ml and 100 ng/ml DNP specific-IgE was added. After 20 hrs, the cells were harvested by centrifugation and washed once in serum-free minimal essential media, and resuspended to 2×10^6 cells/ml in serum free media. The cells were then preincubated with either inhibitor in DMSO (1% v/v) or DMSO (1% v/v) for 15 min at 37° C. followed by stimulation with DNP-BSA (300 ng/ml). After 6 min, the cells were removed by centrifugation, and the supernatant was assayed for PGD2 content in accordance with known methods.
(§2) 7-hydroxycoumarinyl 6-heptenoate was used as a monomeric substrate for cPLA2 as reported previously (Huang, Z. et al., 1994, Analytical Biochemistry 222, 110-115). Inhibitors were mixed with 200 μL assay buffer (80 mM Hepes, pH 7.5, 1 mM EDTA) containing 60 μM 7-hydroxycoumarinyl 6-heptenoate. The reaction was initiated by adding 4 μg cPLA2 in 50 μL assay buffer. Hydrolysis of the 7-hydroxycoumarinyl 6-heptenoate ester was monitored in a fluorometer by exciting at 360 nm and monitoring emission at 460 nm. Enzyme activity is proportional to the increasein emission at 460 nm per minute. In the presence of a cPLA2 inhibitor, the rate of increase is less.

cPLA2 [2] = target: T1, cPLA2; test: Soluble substrate assay (LysoPC); type: biochemical
Experimental: (b) Soluble Substrate Assay (LysoPC)
as §1, with “The” for “1-[^14C]-palmitoyl-2-hydroxyphosphotidyl-choline (57 mCi/mmol) (final concentration 4.4 μM) was dried under a stream of nitrogen. The”

cPLA2 [3] = target: T1, cPLA2; test: Coumarine assay (7-hydroxycoumarinyl 6-heptenoate hydrolysis); type: biochemical
Experimental: as §2

[4] = system: carrageenan-induced footpad edema; test: Rat carrageenan-induced footpad edema test; type: in vivo; settings: iv, read-out: % inhibition of rat carrageenan-induced footpad edema
Experimental: Compounds of the present invention were also tested for in vivo activity in a rat paw edema test according to the procedure described in Example 89.
Rat Carrageenan-Induced Footpad Edema Test
Each compound was suspended in 0.3 ml absolute ethanol, 0.1 ml Tween-80 and 2.0 ml Dulbecco's PBS (without calcium or magnesium). To this mixture, 0.1 ml 1N NaOH was added. After solution was complete, additional amounts of PBS were added to adjust the concentration to 1 mg/ml. All comounds remained in solution. Compounds were administered i.v. in a volumne of 5 ml/kg to male Sprague Dawley rats at the same time that edema was induced by injection of 0.05 ml of 1% Type IV carrageenan into the hind footpad. Footpad volume was measured before dosing with compound and 3 hours after dosing with carageenan.

[5] = NA = inhibitory activity not detected, read-out: IC50 (μM) Lyso PC
[6] = 60 μM 7-hydroxycoumarinyl 6-heptenoate, read-out: IC50 (μM) Coumarine
[7] = 1 mg/ml, 5 ml/kg, male Sprague Dawley rats, footpad volume 3 hours after carrageenan

IC50 (cPLA2 [1]): 4.5 µM
Structure (SMILES): O=C(O)c1ccc(CN2C(=O)S/C(=C/c3cc4cc(OCc5ccccc5)ccc4n3Cc3ccc(Cl)cc3)C2=O)cc1 [Example 97, 4-[(5-{(E)-[5-(Benzyloxy)-1-(4-chlorobenzyl)-1H-indol-2yl]methylidene}2,4-dioxo-1,3-thiazolan-3-yl)methyl]benzoic Acid]

PERCENT INHIBITION @ CONCENTRATION 25 micromolar (cPLA2 [1]; 25 micromolar): 32%
PERCENT INHIBITION @ CONCENTRATION 50 micromolar (cPLA2 [1]): 46%
Structure (SMILES): COc1cccc(-c2ccc3c(c2)cc(C(=O)O)n3Cc2ccccc2)c1 [Example 112, 1-Benzyl-5-(3-methoxyphenyl)-1H-indole-2-carboxylic Acid]

IC50 (cPLA2 [1]): 50 µM
Structure (SMILES): O=C(O)c1cc2cc(-c3cc4ccccc4o3)ccc2n1Cc1ccccc1 [Example 110, 5-(1-Benzofuran-2-yl)-1-benzyl-1H-indole-2-carboxylic Acid]

IC50 (cPLA2 [1]): 10 µM
Structure (SMILES): O=C1NC(=S)S/C1=C/c1cc2cc(OCc3ccccc3)ccc2n1Cc1ccc(C(F)(F)F)cc1C(F)(F)F [Example 101, 5-((E)-{5-(Benzyloxy)-1-[2,4-bis(trifluoromethyl)benzyl]-1H-indol-2-yl}methylidene)-2-thioxo-1,3-thiazolan-4-one]

IC50 (cPLA2 [1]): 23 µM
Structure (SMILES): O=C(O)/C=C/c1cc2cc(OCc3ccccc3)ccc2n1Cc1ccc(C(F)(F)F)cc1C(F)(F)F [Example 125]

IC50 (cPLA2 [1]): 170 µM
Structure (SMILES): O=C(O)c1cc2cc(-c3ccccc3)ccc2n1Cc1ccccc1 [Example 113, 1-Benzyl-5-phenyl-1H-indole-2-carboxylic Acid]

IC50 (cPLA2 [1]): 3.8 µM
Structure (SMILES): O=C(O)c1ccc(CN2C(=O)/C(=C\c3cc4cc(OCc5ccccc5)ccc4n3Cc3ccc(C(F)(F)F)cc3C(F)(F)F)SC2=S)cc1 [Example 107, 4-{[5-((E)-{5-(Benzyloxy)-1-[2,4-bis(trifluoromethyl)benzyl]-1H-indol-2-yl}methylidene)-4-oxo-2-thioxo-1,3-thiazolan-3-yl]methyl}benzoic Acid]

PERCENT INHIBITION @ CONCENTRATION 50 micromolar (cPLA2 [1]): 31% and 25%
Structure (SMILES): O=C(O)c1cc(NC(=O)c2cc3cc(OCc4ccccc4)ccc3n2Cc2ccccc2)cc(C(=O)O)c1 [Example 123, 5-({[1-Benzyl-5-(benzyloxy)-1H-indol-2-yl]carbonyl}amino)isophthalic Acid]

IC50 (cPLA2 [1]): 13 µM
Structure (SMILES): O=C(O)c1cc2cc(-c3ccc(F)cc3)ccc2n1Cc1ccccc1 [Example 111, 1-Benzyl-5-(4-fluorophenyl)-1H-indole-2-carboxylic Acid]

The remaining lines, values behind:

Structure (SMILES): CC(=O)c1c(CSCC(=O)O)n(Cc2ccc(C(=O)c3nc4ccccc4s3)cc2)c2ccc(OCc3ccccc3)cc12 [Example 133]
IC50 (cPLA2 [1]): 8.5 µM

Structure (SMILES): O=C(O)c1cccc(NC(=O)c2cc3cc(OCc4ccccc4)ccc3n2Cc2ccc(COc3cc(C(F)(F)F)cc(C(F)(F)F)c3)cc2)c1 [Example 8]
IC50 (cPLA2 [2]): 0.11 µM
IC50 (cPLA2 [3]): 3.8 µM
inhibition in vivo at 1000 µg/mL, 5 mg/kg ([4]; 3 h): 29%

Structure (SMILES): CC(=O)c1c(COc2ccc(C(=O)O)cc2)n(Cc2ccc(C(=O)c3nc4ccccc4s3)cc2)c2ccc(OCc3ccccc3)cc12 [Example 135]
IC50 (cPLA2 [1]): 9 µM

Structure (SMILES): CCC(C)(C)c1ccc(OCC(=O)N2c3ccc(OCc4ccccc4)cc3CC2CSc2ccccc2C(=O)O)c(C(C)(C)CC)c1 (stereo not shown) [Example 67, 2-(2-(-5-Benzyloxy-1-(2,4-bis(1,1-dimethy)propyl)phenoxyacetyl)indolinyl)methylthiobenzoic Acid]
IC50 (cPLA2 [2]; [5]): 0.22 µM
IC50 (cPLA2 [3]; [6]): 10 µM
inhibition in vivo at 1000 µg/mL, 5 mg/kg [4, 7]: 17.5%

Structure (SMILES): O=C(CSCC1Cc2cc(OCc3ccc4ccccc4n3)ccc2N1C(=O)COc1cc(C(F)(F)F)cc(C(F)(F)F)c1)Nc1cc(C(F)(F)F)cc(C(F)(F)F)c1 (stereo not shown) [Example 50]
IC50 (cPLA2 [2]; [5]): 4.4 µM
IC50 (cPLA2 [3]; [6]): > 50 µM
inhibition in vivo at 1000 µg/mL, 5 mg/kg [4, 7]: 11.7%

Structure (SMILES): O=C(O)c1ccc(CN2C(=O)S/C(=C/c3cc4cc(OCc5ccccc5)ccc4n3Cc3ccc(COc4cc(C(F)(F)F)cc(C(F)(F)F)c4)cc3)C2=O)cc1 [Example 88, 4-[(5-{(E)[5-(Benzyloxy)-1-(4-{[3,5-bis(trifluoromethyl)phenoxyl]methyl}benzyl)-1H-indol-2-yl]methylidene}-2,4-dioxo-1,3-thiazolan-3-yl)methyl]benzoic Acid]
IC50 (cPLA2 [1]): 3 µM

Structure (SMILES): O=C(O)c1ccccc1SCC1Cc2cc(OCc3ccccc3)ccc2N1Cc1ccc2ccccc2c1 (stereo not shown) [Example 76]
IC50 (cPLA2 [3]; [6]): 4.5 µM
inhibition in vivo at 1000 µg/mL, 5 mg/kg [4, 7]: 8.2%

Structure (SMILES): O=C(O)c1ccccc1SCC1Cc2cc(OCc3ccccc3)ccc2N1Cc1ccc(COc2cc(C(F)(F)F)cc(C(F)(F)F)c2)cc1 (stereo not shown) [Example 77]
IC50 (cPLA2 [3]; [6]): 2.5 µM
inhibition in vivo at 1000 µg/mL, 5 mg/kg [4, 7]: 13%

Structure (SMILES): O=C1NC(=O)/C(=C\c2cc3cc(OCc4ccccc4)ccc3n2Cc2ccc(Cc3ccccc3)cc2)S1 [Example 93, 5-{(E)-[1-(4-Benzylbenzyl)-5-(benzyloxy)-1H-indol-2-yl]methylidene}-1,3-thiazolane-2,4-dione]
PERCENT INHIBITION @ CONCENTRATION 12.5 micromolar (cPLA2 [1]; 12.5 micromolar): 55%
IC50 (cPLA2 [1]): 12.5 µM

Structure (SMILES): CC(=O)c1c(CSc2ccccc2C(=O)O)n(Cc2ccc(C(=O)c3nc4ccccc4s3)cc2)c2ccc(OCc3ccccc3)cc12 [Example 134]
IC50 (cPLA2 [1]): 3.5 µM

Structure (SMILES): CCn1c(CSCC(=O)Nc2cc(C(=O)O)ccc2OC)c(C(=O)COc2ccc(C(C)(C)CC)cc2C(C)(C)CC)c2cc(OCc3ccccc3)ccc21 [Example 13]
IC50 (cPLA2 [2]): 0.5 µM
IC50 (cPLA2 [3]): 12 µM

Structure (SMILES): CCC(C)(C)c1ccc(OCC(=O)N2c3ccc(OCc4ccccc4)cc3CC2CSc2ccccc2C(=O)NC)c(C(C)(C)CC)c1 (stereo not shown) [Example 68]
IC50 (cPLA2 [2]; [5]): > 50 µM
IC50 (cPLA2 [3]; [6]): > 50 µM

Structure (SMILES): O=C(O)CN1C(=O)S/C(=C/c2cc3cc(OCc4ccccc4)ccc3n2Cc2ccc(COc3cc(C(F)(F)F)cc(C(F)(F)F)c3)cc2)C1=O [Example 96, 2-(5-{(E)-[5-(Benzyloxy)-1-(4-{[3,5-bis(trifluoromethyl)phenoxy]methyl}benzyl)-1H-indol-2-yl]methylidene}-2,4-dioxo-1,3-thiazolan-3-yl)acetic Acid]
IC50 (cPLA2 [1]): 5 µM
